In patent US20250206757A1 (GASHERBRUM BIO, INC., priority 2022, published 2025):

Target: GLP-1 Receptor (Homo sapiens, UniProt P43220)
Test: GLP-1R agonist cAMP stimulation assay (HEK293/GLP1R/CRE-LUC cells, HTRF cAMP dynamic 2 kit)
Assay type: cell-based
Settings: HEK293/CRE-Luc cell line stably expressing the GLP-1 Receptor; 30 min incubation at 37° C.
Method: Activation of GLP-1 receptor is known to stimulate cyclic AMP (cAMP) production in cells which indicates primary coupling to the Gas subunit of the G protein heterotrimeric complex.
To optimize functional activity directed toward Gas coupling, a HEK293/CRE-Luc cell line developed by HDB stably expressing the GLP-1 Receptor was used. 200× concentration of compound working solutions were prepared (Agilent Technologies Bravo) with 1/2 log serial dilution in 384-well Echo LDV plate (Labcyte, Cat #LP-0200). 50 nL/well 200× concentration of compound working solutions were moved to 384-well white low volume plate (Greiner, Cat #784075) using Labcyte ECHO550. 1×10^5 cells/mL HEK293/GLP1R/CRE-LUC (HD Biosciences) cell suspensions prepared with assay buffer [DPBS containing 0.5 mM IBMX (Sigma, Cat #15879) and 0.10% BSA (GENVIEW, Cat #FA016-100g)], 10 μL cell suspensions were added to each well of previous generated assay plate which already contains 50 nL compound at 200× concentration using ThermoFisher Multidrop Combi (1000 cells/well). Seal the plate and incubate at 37° C. with 5% CO2 for 30 min.
After incubation the cAMP assay signal was generated using cAMP dynamic 2 Kit (Cisbio). 5 μL cAMP-d2 working solution was added to each well, followed with 5 μL Anti-cAMP antibody-cryptate working solution added to each well using ThermoFisher Multidrop Combi. Incubate at room temperature for 1 hour protected from light. Read the fluorescence at 665 and 615 nm with Reader PerkinElmer EnVision.

Chain of GLP-1 Receptor (P43220 24-463): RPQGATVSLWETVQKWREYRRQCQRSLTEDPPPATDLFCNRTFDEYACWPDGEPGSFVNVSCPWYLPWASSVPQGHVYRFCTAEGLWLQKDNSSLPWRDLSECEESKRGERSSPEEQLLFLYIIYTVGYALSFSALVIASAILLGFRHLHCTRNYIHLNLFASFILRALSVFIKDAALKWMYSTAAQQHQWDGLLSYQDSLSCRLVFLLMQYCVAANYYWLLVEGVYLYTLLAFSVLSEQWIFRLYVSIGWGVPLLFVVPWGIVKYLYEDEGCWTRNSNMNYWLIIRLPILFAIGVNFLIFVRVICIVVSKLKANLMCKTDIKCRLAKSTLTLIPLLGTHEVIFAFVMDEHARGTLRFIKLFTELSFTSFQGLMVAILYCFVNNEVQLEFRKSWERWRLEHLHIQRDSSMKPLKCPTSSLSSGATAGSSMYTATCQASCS

EC50 [nM]	SMILES
< 1	N#Cc1cc2c(nc1OCc1c(F)cc(Cl)cc1F)CN(Cc1nc3cc(-c4nnc(C(F)F)[nH]4)ncc3n1C[C@@H]1CCO1)CC2 [Compound 69, 2-[(4-chloro-2,6-difluorophenyl)methoxy]-7-({6-[5-(difluoromethyl)-4H-1,2,4-triazol-3-yl]-3-{[(2S)-oxetan-2-yl]methyl}-3H-imidazo[4,5-c]pyridin-2-yl}methyl)-5,6,7,8-tetrahydro-1,7-naphthyridine-3-carbonitrile]
1 to 300	CN(C)C(=O)c1nnc(-c2cc3nc(CN4CCc5cc(C(F)(F)F)c(OCc6ccc(Cl)cc6F)nc5C4)n(C[C@@H]4CCO4)c3cn2)[nH]1 [Compound 95, 5-[2-({2-[(4-chloro-2-fluorophenyl)methoxy]-3-(trifluoromethyl)-5,6,7,8-tetrahydro-1,7-naphthyridin-7-yl}methyl)-3-{[(2S)-oxetan-2-yl]methyl}-3H-imidazo[4,5-c]pyridin-6-yl]-N,N-dimethyl-4H-1,2,4-triazole-3-carboxamide]
< 1	O=c1[nH]c(-c2cc3nc(CN4CCc5cc(C(F)(F)F)c(OCc6c(F)cc(Cl)cc6F)nc5C4)n(C[C@@H]4CCO4)c3cn2)no1 [Compound 32, 3-[2-({2-[(4-chloro-2,6-difluorophenyl)methoxy]-3-(trifluoromethyl)-5,6,7,8-tetrahydro-1,7-naphthyridin-7-yl}methyl)-3-{1[(2S)-oxetan-2-yl]methyl}-3H-imidazo[4,5-c]pyridin-6-yl]-4,5-dihydro-1,2,4-oxadiazol-5-one]
< 1	Fc1cc(Cl)ccc1CNc1nc2c(cc1C(F)(F)F)CCN(Cc1nc3cc(-c4nnc(C(F)(F)F)[nH]4)ncc3n1C[C@@H]1CCO1)C2 [Compound 109, N-[(4-chloro-2-fluorophenyl)methyl]-7-[(3-{1[(2S)-oxetan-2-yl]methyl}-6-[5-(trifluoromethyl)-4H-1,2,4-triazol-3-yl]-3H-imidazo[4,5-c]pyridin-2-yl)methyl]-3-(trifluoromethyl)-5,6,7,8-tetrahydro-1,7-naphthyridin-2-amine]
1 to 300	O=C(NCC(F)(F)F)c1cc2nc(CN3CCc4cc(C(F)(F)F)c(OCc5ccc(Cl)cc5F)nc4C3)n(C[C@@H]3CCO3)c2cn1 [Compound 23, 2-({2-[(4-chloro-2-fluorophenyl)methoxy]-3-(trifluoromethyl)-5,6,7,8-tetrahydro-1,7-naphthyridin-7-yl}methyl)-3-{[(2S)-oxetan-2-yl]methyl}-N-(2,2,2-trifluoroethyl)-3H-imidazo[4,5-c]pyridine-6-carboxamide]
< 1	CNC(=O)c1nnc(-c2cc3nc(CN4CCc5cc(C(F)(F)F)c(OCc6ccc(Cl)cc6F)nc5C4)n(C[C@@H]4CCO4)c3cn2)[nH]1 [Compound 94, 5-[2-({2-[(4-chloro-2-fluorophenyl)methoxy]-3-(trifluoromethyl)-5,6,7,8-tetrahydro-1,7-naphthyridin-7-yl}methyl)-3-{[(2S)-oxetan-2-yl]methyl}-3H-imidazo[4,5-c]pyridin-6-yl]-N-methyl-4H-1,2,4-triazole-3-carboxamide]
< 1	FC(F)(F)c1nnc(-c2cc3nc(CN4CCc5cc(C(F)(F)F)c(OCc6ccc(Cl)cc6)nc5C4)n(C[C@@H]4CCO4)c3cn2)[nH]1 [Compound 54, 2-[(4-chlorophenyl)methoxy]-7-[(3-{1[(2S)-oxetan-2-yl]methyl}-6-[5-(trifluoromethyl)-4H-1,2,4-triazol-3-yl]-3H-imidazo[4,5-c]pyridin-2-yl)methyl]-3-(trifluoromethyl)-5,6,7,8-tetrahydro-1,7-naphthyridine]
< 1	Cc1nnc(-c2cc3nc(CN4CCc5cc(C(F)(F)F)c(OCc6ccc(Cl)cc6)nc5C4)n(C[C@@H]4CCO4)c3cn2)[nH]1 [Compound 61, 2-[(4-chlorophenyl)methoxy]-7-{[6-(5-methyl-4H-1,2,4-triazol-3-yl)-3-{1[(2S)-oxetan-2-yl]methyl}-3H-imidazo[4,5-c]pyridin-2-yl]methyl}-3-(trifluoromethyl)-5,6,7,8-tetrahydro-1,7-naphthyridine]
> 300	Cc1cc(-c2nnc(C(F)(F)F)[nH]2)cnc1CN1CCc2cc(Cl)c(OCc3ccc(Cl)cc3F)nc2C1 [Compound 12, 3-chloro-2-[(4-chloro-2-fluorophenyl)methoxy]-7-({3-methyl-5-[5-(trifluoromethyl)-4H-1,2,4-triazol-3-yl]pyridin-2-yl}methyl)-5,6,7,8-tetrahydro-1,7-naphthyridine]
1 to 300	CNC(=O)c1cc2nc(CN3CCc4cc(C(F)(F)F)c(OCc5ccc(Cl)cc5F)nc4C3)n(C[C@@H]3CCO3)c2cn1 [Compound 24, 2-({2-[(4-chloro-2-fluorophenyl)methoxy]-3-(trifluoromethyl)-5,6,7,8-tetrahydro-1,7-naphthyridin-7-yl}methyl)-N-methyl-3-{[(2S)-oxetan-2-yl]methyl}-3H-imidazo[4,5-c]pyridine-6-carboxamide]
1 to 300	O=c1[nH]c(-c2ccc3c(nc(CN4CCc5cc(C(F)(F)F)c(OCc6c(F)cc(Cl)cc6F)nc5C4)n3C[C@@H]3CCO3)c2F)no1 [Compound 48, 3-[2-({2-[(4-chloro-2,6-difluorophenyl)methoxy]-3-(trifluoromethyl)-5,6,7,8-tetrahydro-1,7-naphthyridin-7-yl}methyl)-4-fluoro-1-{[(2S)-oxetan-2-yl]methyl}-1H-1,3-benzodiazol-5-yl]-4,5-dihydro-1,2,4-oxadiazol-5-one]
< 1	O=c1[nH]nc(-c2cc3nc(CN4CCc5cc(C(F)(F)F)c(OCc6ccc(Cl)cc6F)nc5C4)n(C[C@@H]4CCO4)c3cn2)[nH]1 [Compound 97, 3-[2-({2-[(4-chloro-2-fluorophenyl)methoxy]-3-(trifluoromethyl)-5,6,7,8-tetrahydro-1,7-naphthyridin-7-yl}methyl)-3-{[(2S)-oxetan-2-yl]methyl}-3H-imidazo[4,5-c]pyridin-6-yl]-4,5-dihydro-1H-1,2,4-triazol-5-one]
< 1	O=c1[nH]c(-c2cc3nc(CN4CCc5cc(C(F)(F)F)c(NCc6ccc(Cl)cc6F)nc5C4)n(C[C@@H]4CCO4)c3cn2)no1 [Compound 104, 3-{2-[(2-{[(4-chloro-2-fluorophenyl)methyl]amino}-3-(trifluoromethyl)-5,6,7,8-tetrahydro-1,7-naphthyridin-7-yl)methyl]-3-{[(2S)-oxetan-2-yl]methyl}-3H-imidazo[4,5-c]pyridin-6-yl}-4,5-dihydro-1,2,4-oxadiazol-5-one]
< 1	CC(c1nc2cc(-c3nnc(C(F)(F)F)[nH]3)ncc2n1C[C@@H]1CCO1)N1CCc2cc(C(F)(F)F)c(OCc3c(F)cc(Cl)cc3F)nc2C1 (stereo partly drawn) [Compound 83, 2-[(4-chloro-2,6-difluorophenyl)methoxy]-7-[1-(3-{1[(2S)-oxetan-2-yl]methyl}-6-[5-(trifluoromethyl)-4H-1,2,4-triazol-3-yl]-3H-imidazo[4,5-c]pyridin-2-yl)ethyl]-3-(trifluoromethyl)-5,6,7,8-tetrahydro-1,7-naphthyridine]
1 to 300	Cc1nnc(-c2cc3c(nc(CN4CCc5cc(C(F)(F)F)c(OCc6ccc(Cl)cc6F)nc5C4)n3C[C@@H]3CCO3)s2)[nH]1 [Compound 60, 2-[(4-chloro-2-fluorophenyl)methoxy]-7-{[5-(5-methyl-4H-1,2,4-triazol-3-yl)-1-{[(2S)-oxetan-2-yl]methyl}-1H-thieno[2,3-d]imidazol-2-yl]methyl}-3-(trifluoromethyl)-5,6,7,8-tetrahydro-1,7-naphthyridine]
